# Target: T1, 11-beta-hydroxysteroid dehydrogenase 1 [23-292,A23S,F278E] (Homo sapiens, UniProt P28845, A23S/F278E)
# T1 construct: 23-292
# Experiment: Scintillation Proximity Assay (SPA)
# Details: pH 6.5; 23 °C
# Description: 11beta-HSD1 microsomes isolated from HEK 293 cells over-expressing human 11beta-HSD1 were incubated with the substrate cortisone and cofactor NADPH at room temperature. The reactions were terminated with the addition of a nonspecific 11beta-HSD1 inhibitor (18beta-glycyrrhetinic acid). The product cortisol was quantified in an immuno-competition SPA wherein the [3H]-cortisol bound to anti-rabbit antibody Yitrium silicate SPA beads coated with polyclonal anti-cortisol antibody was competed by cortisol produced in the reaction, and the reaction mixture was read in a scintillation plate reader (TopCount). The amount of cortisol was determined from a cortisol standard curve.
# T1 sequence (P28845 as listed by the source A23S/F278E): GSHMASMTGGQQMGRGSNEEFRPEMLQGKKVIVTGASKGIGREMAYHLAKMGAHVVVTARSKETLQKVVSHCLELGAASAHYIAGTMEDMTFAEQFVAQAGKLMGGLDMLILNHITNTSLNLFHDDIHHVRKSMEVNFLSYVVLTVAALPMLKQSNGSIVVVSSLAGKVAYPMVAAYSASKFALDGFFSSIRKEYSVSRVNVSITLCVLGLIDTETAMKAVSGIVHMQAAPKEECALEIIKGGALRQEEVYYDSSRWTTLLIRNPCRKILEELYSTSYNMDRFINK
structure (smiles),measurement,value
"O=C(c1cncc(CS(=O)(=O)c2c(Cl)cccc2Cl)c1)N1CCOCC1 [pyridine amide, 26]",IC50,> 10 µM

# — BindingDB's records for doi:10.1016/j.bmcl.2008.04.069 (Bristol-Myers Squibb, 2008)
